ChEMBL document CHEMBL2440076, “New triarylpyrazoles as broad-spectrum anticancer agents: design, synthesis, and biological evaluation” (Eur J Med Chem, 2013)

What was measured:
Format in all cases: functional
SF-539 = assay: Growth inhibition of human SF539 cells assessed as cell growth at 3X10'-7 M after 48 hrs by sulforhodamine B assay; details: SF-539, 48 h, read-out: Activity
HCT-116 = assay: Growth inhibition of human HCT116 cells assessed as cell growth at 3X10'-9 M after 48 hrs by sulforhodamine B assay; details: HCT-116, 48 h, read-out: Activity
HL-60(TB) = assay: Growth inhibition of human HL-60(TB) cells assessed as cell growth at 3X10'-9 M after 48 hrs by sulforhodamine B assay; details: HL-60, 48 h, read-out: Activity
SK-OV-3 = assay: Growth inhibition of human SKOV3 cells assessed as cell growth at 3X10'-9 M after 48 hrs by sulforhodamine B assay; details: SK-OV-3, 48 h, read-out: Activity
786-0 [1] = assay: Growth inhibition of human 786-0 cells assessed as cell growth at 3X10'-7 M after 48 hrs by sulforhodamine B assay; details: 786-0, 48 h, read-out: Activity
NCI-H23 [2] = assay: Growth inhibition of human NCI-H23 cells assessed as cell growth at 3X10'-7 M after 48 hrs by sulforhodamine B assay; details: NCI-H23, 48 h, read-out: Activity
HT-29 = assay: Growth inhibition of human HT-29 cells assessed as cell growth at 3X10'-7 M after 48 hrs by sulforhodamine B assay; details: HT-29, 48 h, read-out: Activity
KM12 = assay: Growth inhibition of human KM12 cells assessed as cell growth at 3X10'-5 M after 48 hrs by sulforhodamine B assay; details: KM12, 48 h, read-out: Activity
RPMI-8226 [3] = assay: Growth inhibition of human RPMI8226 cells assessed as cell growth at 3X10'-6 M after 48 hrs by sulforhodamine B assay; details: RPMI-8226, 48 h, read-out: Activity
K562 = assay: Growth inhibition of human K562 cells assessed as cell growth at 3X10'-6 M after 48 hrs by sulforhodamine B assay; details: K562, 48 h, read-out: Activity
COLO 205 = assay: Growth inhibition of human COLO205 cells assessed as cell growth at 3X10'-5 M after 48 hrs by sulforhodamine B assay; details: COLO 205, 48 h, read-out: Activity
LOX IMVI = assay: Growth inhibition of human LOXIMVI cells assessed as cell growth at 3X10'-7 M after 48 hrs by sulforhodamine B assay; details: read-out: Activity
[4] = Growth inhibition of human Hs 578T cells assessed as cell growth at 3X10'-8 M after 48 hrs by sulforhodamine B assay; details: read-out: Activity
RPMI-8226 [5] = assay: Growth inhibition of human RPMI8226 cells assessed as cell growth at 3X10'-9 M after 48 hrs by sulforhodamine B assay; details: RPMI-8226, 48 h, read-out: Activity
M14 = assay: Growth inhibition of human M14 cells assessed as cell growth at 3X10'-7 M after 48 hrs by sulforhodamine B assay; details: M14, 48 h, read-out: Activity
NCI-H460 = assay: Growth inhibition of human NCI-H460 cells assessed as cell growth at 3X10'-7 M after 48 hrs by sulforhodamine B assay; details: NCI-H460, 48 h, read-out: Activity
A498 [6] = assay: Growth inhibition of human A498 cells assessed as cell growth at 3X10'-5 M after 48 hrs by sulforhodamine B assay; details: A498, 48 h, read-out: Activity
MDA-MB-435 [7] = assay: Growth inhibition of human MDA-MB-435 cells assessed as cell growth at 3X10'-8 M after 48 hrs by sulforhodamine B assay; details: MDA-MB-435, 48 h, read-out: Activity
A498 [8] = assay: Growth inhibition of human A498 cells assessed as cell growth at 3X10'-7 M after 48 hrs by sulforhodamine B assay; details: A498, 48 h, read-out: Activity
NCI-H23 [9] = assay: Growth inhibition of human NCI-H23 cells assessed as cell growth at 3X10'-8 M after 48 hrs by sulforhodamine B assay; details: NCI-H23, 48 h, read-out: Activity
IGROV-1 = assay: Growth inhibition of human IGROV1 cells assessed as cell growth at 3X10'-7 M after 48 hrs by sulforhodamine B assay; details: IGROV-1, 48 h, read-out: Activity
TK-10 [10] = assay: Growth inhibition of human TK10 cells assessed as cell growth at 3X10'-8 M after 48 hrs by sulforhodamine B assay; details: TK-10, 48 h, read-out: Activity
TK-10 [11] = assay: Growth inhibition of human TK10 cells assessed as cell growth at 3X10'-9 M after 48 hrs by sulforhodamine B assay; details: TK-10, 48 h, read-out: Activity
ACHN = assay: Growth inhibition of human ACHN cells assessed as cell growth at 3X10'-7 M after 48 hrs by sulforhodamine B assay; details: read-out: Activity
SF-295 = assay: Growth inhibition of human SF295 cells assessed as cell growth at 3X10'-5 M after 48 hrs by sulforhodamine B assay; details: SF-295, 48 h, read-out: Activity
SF-268 = assay: Growth inhibition of human SF268 cells assessed as cell growth at 3X10'-8 M after 48 hrs by sulforhodamine B assay; details: SF-268, 48 h, read-out: Activity
MDA-MB-435 [12] = assay: Growth inhibition of human MDA-MB-435 cells assessed as cell growth at 3X10'-5 M after 48 hrs by sulforhodamine B assay; details: MDA-MB-435, 48 h, read-out: Activity
CCRF-CEM [13] = assay: Growth inhibition of human CCRF-CEM cells assessed as cell growth at 3X10'-5 M after 48 hrs by sulforhodamine B assay; details: read-out: Activity
786-0 [14] = assay: Growth inhibition of human 786-0 cells assessed as cell growth at 3X10'-9 M after 48 hrs by sulforhodamine B assay; details: 786-0, 48 h, read-out: Activity
SW-620 = assay: Growth inhibition of human SW620 cells assessed as cell growth at 3X10'-7 M after 48 hrs by sulforhodamine B assay; details: SW-620, 48 h, read-out: Activity
CCRF-CEM [15] = assay: Growth inhibition of human CCRF-CEM cells assessed as cell growth at 3X10'-8 M after 48 hrs by sulforhodamine B assay; details: read-out: Activity
NCI-H23 [16] = assay: Growth inhibition of human NCI-H23 cells assessed as cell growth at 3X10'-9 M after 48 hrs by sulforhodamine B assay; details: NCI-H23, 48 h, read-out: Activity
786-0 [17] = assay: Growth inhibition of human 786-0 cells assessed as cell growth at 3X10'-8 M after 48 hrs by sulforhodamine B assay; details: 786-0, 48 h, read-out: Activity
[18] = Growth inhibition of human HCC2998 cells assessed as cell growth at 3X10'-5 M after 48 hrs by sulforhodamine B assay; details: HCC 2998, 48 h, read-out: Activity
UO-31 = assay: Growth inhibition of human UO31 cells assessed as cell growth at 3X10'-6 M after 48 hrs by sulforhodamine B assay; details: UO-31, 48 h, read-out: Activity

Compound | growth at 0.3 µM (SF-539) | growth at 0.003 µM (HCT-116) | growth at 0.003 µM (HL-60(TB)) | growth at 0.003 µM (SK-OV-3) | growth at 0.3 µM (786-0 [1]) | growth at 0.3 µM (NCI-H23 [2]) | growth at 0.3 µM (HT-29) | growth at 30 µM (KM12) | growth at 3 µM (RPMI-8226 [3]) | growth at 3 µM (K562) | growth at 30 µM (COLO 205) | growth at 0.3 µM (LOX IMVI) | growth at 0.03 µM [4] | growth at 0.003 µM (RPMI-8226 [5]) | growth at 0.3 µM (M14) | growth at 0.3 µM (NCI-H460) | growth at 30 µM (A498 [6]) | growth at 0.03 µM (MDA-MB-435 [7]) | growth at 0.3 µM (A498 [8]) | growth at 0.03 µM (NCI-H23 [9]) | also measured
O=C(Nc1cccc(-n2cc(-c3ccncc3)c(-c3ccc(Cl)c(O)c3)n2)c1)Nc1ccc(Cl)c(C(F)(F)F)c1 | 89% | 105% | 116% | 102% | 96% | 93% | 93% | -70% | -20% | 3% | -90% | 87% | 88% | 96% | 94% | 94% | -49% | 94% | 95% | 100% | growth at 0.3 µM (IGROV-1): 85%; growth at 0.03 µM (TK-10 [10]): 103%; growth at 0.003 µM (TK-10 [11]): 101%; growth at 0.3 µM (ACHN): 84%; growth at 30 µM (SF-295): -41%; growth at 0.03 µM (SF-268): 103%; growth at 30 µM (MDA-MB-435 [12]): -54%; growth at 30 µM (CCRF-CEM [13]): -14%; growth at 0.003 µM (786-0 [14]): 98%; growth at 0.3 µM (SW-620): 105%; growth at 0.03 µM (CCRF-CEM [15]): 97%; growth at 0.003 µM (NCI-H23 [16]): 97%; growth at 0.03 µM (786-0 [17]): 102%; growth at 30 µM [18]: -64%; growth at 3 µM (UO-31): -3%
COc1cc(-c2nn(-c3cccc(NC(=O)c4ccc(Cl)c(C(F)(F)F)c4)c3)cc2-c2ccncc2)ccc1Cl | 91% | 100% | 93% | 100% | 99% | 92% | 93% | 17% | 31% | 22% | -13% | 86% | 91% | 97% | 94% | 98% | -9% | 97% | 82% | 92% | growth at 0.3 µM (IGROV-1): 95%; growth at 0.03 µM (TK-10 [10]): 93%; growth at 0.003 µM (TK-10 [11]): 90%; growth at 0.3 µM (ACHN): 90%; growth at 30 µM (SF-295): -10%; growth at 0.03 µM (SF-268): 94%; growth at 30 µM (MDA-MB-435 [12]): -52%; growth at 30 µM (CCRF-CEM [13]): 4%; growth at 0.003 µM (786-0 [14]): 94%; growth at 0.3 µM (SW-620): 91%; growth at 0.03 µM (CCRF-CEM [15]): 102%; growth at 0.003 µM (NCI-H23 [16]): 93%; growth at 0.03 µM (786-0 [17]): 96%; growth at 30 µM [18]: 29%; growth at 3 µM (UO-31): 29%
